Assay results taken from ChEMBL document CHEMBL1201862, “PubChem BioAssay data set” (2004).
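48-hour exposure; five concentrations; linearly interpolated endpoints. Here, GI50 denotes the concentration required for 50% inhibition of growth.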 Activity calls are given as the source filed them. No stated cut-off is given here; in the data, active = GI50 up to about 1.1 µM and inactive = higher.

Legend:
Experiment in all cases: NCI-60 cell line screen, 48 h
KM12 = test system: KM12
NCI-H226 = test system: NCI-H226
SK-MEL-2 = test system: SK-MEL-2
XF498 = test system: XF498
UO-31 = test system: UO-31
M19-MEL = test system: M19-MEL
IGROV-1 = test system: IGROV-1
U-251 = test system: U-251
SNB-75 = test system: SNB-75
NCI-H460 = test system: NCI-H460
SK-MEL-28 = test system: SK-MEL-28
OVCAR-5 = test system: OVCAR-5
SF-268 = test system: SF-268
SF-539 = test system: SF-539
DLD-1 = test system: DLD-1
CAKI-1 = test system: CAKI-1
CCRF-CEM = test system: CCRF-CEM
RPMI-8226 = test system: RPMI-8226
COLO 205 = test system: COLO 205
SR = test system: SR
SNB-78 = test system: SNB-78
OVCAR-4 = test system: OVCAR-4
A549 = test system: A549
SNB-19 = test system: SNB-19
HCT-116 = test system: HCT-116
A498 = test system: A498
SN12C = test system: SN12C
UACC-257 = test system: UACC-257
DMS-114 = test system: DMS-114
LOX IMVI = test system: LOX IMVI
786-0 = test system: 786-0
LXFL 529 = test system: LXFL 529
KM-20L2 = test system: KM-20L2
NCI-H23 = test system: NCI-H23
SK-MEL-5 = test system: SK-MEL-5
HOP-18 = test system: HOP-18
RXF 631 = test system: RXF 631
HT-29 = test system: HT-29
DMS-273 = test system: DMS-273
TK-10 = test system: TK-10
ACHN = test system: ACHN
OVCAR-3 = test system: OVCAR-3
M14 = test system: M14
K562 = test system: K562
SK-OV-3 = test system: SK-OV-3
EKVX = test system: EKVX
MOLT-4 = test system: MOLT-4
SF-295 = test system: SF-295
Malme-3M = test system: Malme-3M
NCI-H522 = test system: NCI-H522
UACC-62 = test system: UACC-62
SW-620 = test system: SW-620
HCC 2998 = test system: HCC 2998
HOP-62 = test system: HOP-62
HOP-92 = test system: HOP-92
OVCAR-8 = test system: OVCAR-8

Measured: GI50

C#CCOCn1cnc2c(N)ncnc21
inactive: KM12 > 100 µM | NCI-H226 > 100 µM | SK-MEL-2 > 100 µM | XF498 > 100 µM | UO-31 > 100 µM | M19-MEL > 100 µM | IGROV-1 > 100 µM | U-251 > 100 µM | SNB-75 > 100 µM | NCI-H460 > 100 µM | SK-MEL-28 > 100 µM | OVCAR-5 > 100 µM | SF-268 > 100 µM | SF-539 > 100 µM | DLD-1 > 100 µM | CAKI-1 > 100 µM | CCRF-CEM > 100 µM | RPMI-8226 > 100 µM | COLO 205 > 100 µM | SR > 100 µM | SNB-78 > 100 µM | OVCAR-4 > 100 µM | A549 > 100 µM | SNB-19 > 100 µM | HCT-116 > 100 µM | A498 > 100 µM | SN12C > 100 µM | UACC-257 > 100 µM | DMS-114 > 100 µM | LOX IMVI > 100 µM | 786-0 > 100 µM | LXFL 529 > 100 µM | KM-20L2 > 100 µM | NCI-H23 > 100 µM | SK-MEL-5 > 100 µM | HOP-18 > 100 µM | RXF 631 > 100 µM | HT-29 > 100 µM | DMS-273 > 100 µM | TK-10 > 100 µM | ACHN > 100 µM | OVCAR-3 > 100 µM | M14 > 100 µM | K562 > 100 µM | SK-OV-3 > 100 µM | EKVX > 100 µM | MOLT-4 > 100 µM | SF-295 > 100 µM | Malme-3M > 100 µM | NCI-H522 > 100 µM | UACC-62 > 100 µM | SW-620 > 100 µM | HCC 2998 > 100 µM | HOP-62 > 100 µM | HOP-92 > 100 µM | OVCAR-8 > 100 µM
